Source: ChEMBL document CHEMBL3044683, “Antifeedant activities of tutin and 7-hydroxycoumarin acylation derivatives against Mythimna separata” (2012)

Key:
[1] = system: Mythimna separata; test: Antifeedant activity against third-instar larvae of Mythimna separata (Oriental armyworm) at 2 mg/ml applied on wheat leaf after 48 hr by non-choice leaf disk method relative to control; format: functional
[2] = system: Mythimna separata; test: Antifeedant activity against third-instar larvae of Mythimna separata (Oriental armyworm) at 2 mg/ml applied on wheat leaf after 24 hr by non-choice leaf disk method relative to control; format: functional

SMILES	AFI [1]	AFI [2]
C/C=C(\C)C(=O)O[C@H]1C[C@@H](OC(C)=O)[C@@]2(C(=O)OC)CO[C@H]3[C@@H](O)[C@@](C)([C@]45O[C@@]4(C)[C@@H]4C[C@H]5O[C@@H]5OC=C[C@@]54O)[C@H]4[C@]1(CO[C@]4(O)C(=O)OC)[C@@H]32 [AZADIRACHTIN A]	43.8%	37.3%
CS(=O)(=O)Oc1ccc2ccc(=O)oc2c1 [7-METHANESULFONYLOXYCOUMARIN]	53.7%	62.4%
C=C(C)[C@H]1[C@H]2OC(=O)[C@@H]1[C@@]1(O)[C@H]3O[C@H]3[C@]3(CO3)[C@]1(C)[C@@H]2O [TUTIN]	31.8%	22.7%
O=C(Oc1ccc2ccc(=O)oc2c1)c1ccc(Cl)cc1 [7-(4-CHLOROBENZOYLOXY)COUMARIN]	17.5%	9.2%
O=C(Oc1ccc2ccc(=O)oc2c1)c1ccc(Cl)cc1Cl [7-(2,4-DICHLOROBENZOYLOXY)COUMARIN]	18.3%	6.3%
O=c1ccc2ccc(O)cc2o1 [UMBELLIFERONE]	17.3%	25.4%
O=C(Oc1ccc2ccc(=O)oc2c1)c1ccc(Cl)nc1 [7-(6-CHLORONICOTINOYLOXY)COUMARIN]	37.9%	45.3%
O=C(Oc1ccc2ccc(=O)oc2c1)c1ccc([N+](=O)[O-])cc1 [7-(4-NITROBENZOYLOXY)COUMARIN]	10.8%	-7.5%
COc1ccc(C(=O)Oc2ccc3ccc(=O)oc3c2)cc1 [7-(4-METHOXYBENZOYLOXY)COUMARIN]	35.4%	32.3%
O=C(Oc1ccc2ccc(=O)oc2c1)c1cc([N+](=O)[O-])cc([N+](=O)[O-])c1 [7-(3,5-DINITROBENZOYLOXY)COUMARIN]	49.1%	46.7%
C=C1CC[C@@H]2[C@](C)(CO)[C@H](O)CC[C@@]2(C)[C@@H]1C/C=C1/C(=O)OC[C@H]1O [ANDROGRAPHOLIDE]	9.6%	26.7%
